Consider 18 compounds from ChEMBL document CHEMBL4480409, “SGC-GAK-1: A Chemical Probe for Cyclin G Associated Kinase (GAK)” (J Med Chem, 2019).

The target of test [1] is T1, Cyclin-G-associated kinase (Homo sapiens, UniProt O14976).
T1 sequence (O14976 whole entry): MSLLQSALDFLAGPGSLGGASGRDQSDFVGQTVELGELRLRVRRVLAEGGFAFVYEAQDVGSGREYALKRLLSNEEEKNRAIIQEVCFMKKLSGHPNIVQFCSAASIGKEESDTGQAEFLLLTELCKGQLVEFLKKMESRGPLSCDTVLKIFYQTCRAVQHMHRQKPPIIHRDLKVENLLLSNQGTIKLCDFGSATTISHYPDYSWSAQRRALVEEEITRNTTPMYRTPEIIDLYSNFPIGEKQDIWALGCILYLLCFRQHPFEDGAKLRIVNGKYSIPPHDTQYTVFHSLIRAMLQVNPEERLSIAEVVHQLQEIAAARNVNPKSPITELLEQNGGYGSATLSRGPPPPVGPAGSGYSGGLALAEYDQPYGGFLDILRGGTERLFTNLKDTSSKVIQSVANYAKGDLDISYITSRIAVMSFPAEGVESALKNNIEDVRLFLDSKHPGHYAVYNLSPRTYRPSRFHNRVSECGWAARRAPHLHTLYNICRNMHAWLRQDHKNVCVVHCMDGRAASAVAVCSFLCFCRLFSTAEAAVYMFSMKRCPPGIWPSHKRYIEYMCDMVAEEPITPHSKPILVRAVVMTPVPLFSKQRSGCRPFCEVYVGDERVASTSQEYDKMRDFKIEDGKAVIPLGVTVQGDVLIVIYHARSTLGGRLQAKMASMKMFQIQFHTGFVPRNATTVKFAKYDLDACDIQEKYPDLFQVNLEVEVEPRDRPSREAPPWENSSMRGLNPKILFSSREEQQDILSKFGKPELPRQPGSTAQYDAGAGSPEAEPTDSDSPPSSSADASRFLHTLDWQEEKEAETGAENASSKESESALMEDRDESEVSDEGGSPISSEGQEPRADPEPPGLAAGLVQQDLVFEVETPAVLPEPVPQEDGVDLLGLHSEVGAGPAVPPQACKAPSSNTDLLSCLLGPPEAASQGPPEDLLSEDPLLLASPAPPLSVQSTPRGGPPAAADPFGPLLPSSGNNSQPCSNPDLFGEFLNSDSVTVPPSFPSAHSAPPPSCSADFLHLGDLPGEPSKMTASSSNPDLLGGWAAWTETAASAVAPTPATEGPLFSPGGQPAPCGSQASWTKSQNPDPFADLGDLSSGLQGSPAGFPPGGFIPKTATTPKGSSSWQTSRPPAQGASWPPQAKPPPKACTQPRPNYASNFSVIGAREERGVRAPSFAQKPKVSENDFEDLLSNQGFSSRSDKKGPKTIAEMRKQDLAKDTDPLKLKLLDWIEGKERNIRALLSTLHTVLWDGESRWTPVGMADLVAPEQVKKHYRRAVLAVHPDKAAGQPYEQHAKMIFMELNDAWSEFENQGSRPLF
Description: Binding affinity to GAK (unknown origin).

Test [2] concerns the target T2, Interleukin-1 receptor-associated kinase 3 (Homo sapiens, UniProt Q9Y616).
T2 sequence (Q9Y616 whole entry): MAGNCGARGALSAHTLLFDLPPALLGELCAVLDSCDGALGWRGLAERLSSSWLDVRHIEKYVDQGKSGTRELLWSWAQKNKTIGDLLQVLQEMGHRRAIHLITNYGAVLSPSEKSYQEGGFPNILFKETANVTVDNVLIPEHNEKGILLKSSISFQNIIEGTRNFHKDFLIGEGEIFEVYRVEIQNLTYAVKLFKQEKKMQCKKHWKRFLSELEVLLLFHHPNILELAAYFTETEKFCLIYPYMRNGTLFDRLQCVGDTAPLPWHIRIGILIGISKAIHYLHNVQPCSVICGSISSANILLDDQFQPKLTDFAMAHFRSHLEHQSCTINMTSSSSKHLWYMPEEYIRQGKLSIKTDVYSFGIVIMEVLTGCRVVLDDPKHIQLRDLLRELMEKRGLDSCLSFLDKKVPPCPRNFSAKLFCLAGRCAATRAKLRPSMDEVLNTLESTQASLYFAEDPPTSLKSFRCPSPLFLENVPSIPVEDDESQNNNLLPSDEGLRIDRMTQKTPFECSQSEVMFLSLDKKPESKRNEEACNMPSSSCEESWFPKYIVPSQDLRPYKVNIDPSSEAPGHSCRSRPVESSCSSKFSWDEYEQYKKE
The test can be described thus: Binding affinity to human IRAK3 (147 to 596 residues) expressed in bacterial expression system by KINOMEscan assay.

The target of test [3] is BMP-2-inducible protein kinase (Homo sapiens, UniProt Q9NSY1). Description: Binding affinity to C-terminal AVI-tagged BMP2K (unknown origin) (38 to 345 residues) expressed in Escherichia coli after 1.5 hrs by TR-FRET assay. In general terms: TR-FRET usually uses a lanthanide donor and a delayed reading to cut background.
Test [4] relates to CWR22R. Description: Cytotoxicity against human 22Rv1 cells after 72 hrs by MTS assay. In kind it is functional, cell-based. The following applies: 22Rv1, 72 h. On the technique in general: Tetrazolium dyes change colour on reduction, which living cells bring about.
The target in test [5] is T3, Cyclin-G-associated kinase (Homo sapiens) (UniProt O14976).
T3 sequence (whole entry): T1 sequence (O14976 whole entry)
Description: Binding affinity to GAK (unknown origin) assessed as change in melting temperature by DSF assay

Test [6] concerns the target AP2-associated protein kinase 1 (Homo sapiens, UniProt Q2M2I8). The test can be described thus: Binding affinity to C-terminal AVI-tagged AAK1 (unknown origin) (31 to 396 residues) expressed in Escherichia coli after 1.5 hrs by TR-FRET assay.
The subject of test [7] is LNCaP. The test can be described thus: Cytotoxicity against human LNCAP cells after 72 hrs by MTS assay. Type of test: functional, cell-based.
Test [8] addresses T1, Cyclin-G-associated kinase.
In test [9] the target is Serine/threonine-protein kinase 16 (Homo sapiens, UniProt O75716). Description: Binding affinity to C-terminal AVI-tagged STK16 (unknown origin) (13 to 305 residues) expressed in Escherichia coli after 1.5 hrs by TR-FRET assay.
The target of test [10] is Atypical kinase COQ8A, mitochondrial (Homo sapiens, UniProt Q8NI60). The test can be described thus: Binding affinity to biotinylated full length human ADCK3 expressed in Escherichia coli incubated for 1.5 hrs by fluorescent tracer dependent TR-FRET based competitive ligand binding displacement assay.
Test [11] addresses T1, Cyclin-G-associated kinase. Description: Binding affinity to biotinylated human GAK (13 to 338 residues) expressed in Escherichia coli incubated for 1.5 hrs by fluorescent tracer dependent TR-FRET based competitive ligand binding displacement assay.
Test [12] has as its target T4, Serine/threonine-protein kinase NLK (Homo sapiens, UniProt Q9UBE8).
T4 sequence (Q9UBE8 whole entry): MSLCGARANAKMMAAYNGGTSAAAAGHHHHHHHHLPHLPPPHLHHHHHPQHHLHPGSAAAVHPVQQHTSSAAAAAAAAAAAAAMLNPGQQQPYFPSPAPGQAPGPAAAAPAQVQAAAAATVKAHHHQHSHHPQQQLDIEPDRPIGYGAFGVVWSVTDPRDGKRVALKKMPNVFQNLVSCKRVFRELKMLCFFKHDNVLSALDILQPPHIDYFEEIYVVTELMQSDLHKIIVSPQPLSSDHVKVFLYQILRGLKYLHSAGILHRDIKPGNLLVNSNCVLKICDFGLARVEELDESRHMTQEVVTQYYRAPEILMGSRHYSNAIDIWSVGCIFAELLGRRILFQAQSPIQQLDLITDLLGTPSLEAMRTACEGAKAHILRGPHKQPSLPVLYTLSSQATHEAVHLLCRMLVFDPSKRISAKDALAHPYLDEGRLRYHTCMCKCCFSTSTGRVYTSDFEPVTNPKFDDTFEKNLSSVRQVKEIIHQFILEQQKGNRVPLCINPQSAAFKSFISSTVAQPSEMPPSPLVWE
Description: Binding affinity to biotinylated full length human NLK expressed in Escherichia coli incubated for 1.5 hrs by fluorescent tracer dependent TR-FRET based competitive ligand binding displacement assay.

The target of test [13] is T5, Receptor-interacting serine/threonine-protein kinase 2 (Homo sapiens, UniProt O43353). The test can be described thus: Binding affinity to biotinylated human RIPK2 (1 to 310 residues) expressed in Escherichia coli incubated for 1.5 hrs by fluorescent tracer dependent TR-FRET based competitive ligand binding displacement assay.
In test [14] the target is T1, Cyclin-G-associated kinase. The test can be described thus: Displacement of fluorescent tracer from N-terminus of human GAK expressed in HEK293T cells after 2 hrs by NanoBRET target engagement assay. In kind it is cell-based. On the technique in general: In BRET a luciferase serves as donor, and the signal depends on an acceptor being close.
The target of test [15] is T5, Receptor-interacting serine/threonine-protein kinase 2. Description: Displacement of fluorescent tracer from N-terminus of human RIPK2 expressed in HEK293T cells after 2 hrs by NanoBRET target engagement assay. Type of test: cell-based.
In test [16] the target is T3, Cyclin-G-associated kinase (Homo sapiens). The test can be described thus: Binding affinity to biotinylated human GAK (13 to 338 residues) expressed in Escherichia coli at 1 uM incubated for 1.5 hrs by fluorescent tracer dependent TR-FRET based competitive ligand binding displacement assay.

Atypical kinase COQ8A, mitochondrial, sequence (Q8NI60 whole entry, the tested form may be a part): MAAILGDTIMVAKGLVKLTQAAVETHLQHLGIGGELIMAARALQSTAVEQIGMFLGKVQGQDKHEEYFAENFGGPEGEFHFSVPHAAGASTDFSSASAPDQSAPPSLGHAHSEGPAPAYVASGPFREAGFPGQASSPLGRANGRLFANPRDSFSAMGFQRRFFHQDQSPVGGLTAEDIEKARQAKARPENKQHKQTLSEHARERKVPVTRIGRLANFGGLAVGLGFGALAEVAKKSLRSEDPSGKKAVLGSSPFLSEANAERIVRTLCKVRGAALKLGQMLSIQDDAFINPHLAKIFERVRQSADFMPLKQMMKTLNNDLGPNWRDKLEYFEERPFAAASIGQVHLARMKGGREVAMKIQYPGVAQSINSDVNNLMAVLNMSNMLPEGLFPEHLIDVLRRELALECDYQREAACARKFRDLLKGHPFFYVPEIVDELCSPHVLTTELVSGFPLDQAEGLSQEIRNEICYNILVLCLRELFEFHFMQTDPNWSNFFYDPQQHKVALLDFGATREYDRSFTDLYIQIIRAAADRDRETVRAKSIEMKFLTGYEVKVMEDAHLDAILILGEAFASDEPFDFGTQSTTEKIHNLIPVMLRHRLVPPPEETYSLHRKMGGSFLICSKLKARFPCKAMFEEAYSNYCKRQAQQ
T5 sequence (O43353 whole entry, the tested form may be a part): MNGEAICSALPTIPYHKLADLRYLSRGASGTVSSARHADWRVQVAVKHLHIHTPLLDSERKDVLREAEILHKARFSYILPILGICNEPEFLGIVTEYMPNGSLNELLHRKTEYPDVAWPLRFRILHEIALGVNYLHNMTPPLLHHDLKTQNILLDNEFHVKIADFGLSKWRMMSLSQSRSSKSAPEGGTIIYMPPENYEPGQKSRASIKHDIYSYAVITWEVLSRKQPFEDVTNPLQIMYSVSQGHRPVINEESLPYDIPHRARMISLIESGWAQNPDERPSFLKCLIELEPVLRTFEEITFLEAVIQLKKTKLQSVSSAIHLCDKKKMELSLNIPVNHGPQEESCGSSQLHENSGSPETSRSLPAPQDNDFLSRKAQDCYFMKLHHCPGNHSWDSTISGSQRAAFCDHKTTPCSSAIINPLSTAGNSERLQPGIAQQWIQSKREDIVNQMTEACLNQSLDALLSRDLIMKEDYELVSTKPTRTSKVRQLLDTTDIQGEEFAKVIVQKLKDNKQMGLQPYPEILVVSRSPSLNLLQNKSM
BMP-2-inducible protein kinase, sequence (Q9NSY1 whole entry, the tested form may be a part): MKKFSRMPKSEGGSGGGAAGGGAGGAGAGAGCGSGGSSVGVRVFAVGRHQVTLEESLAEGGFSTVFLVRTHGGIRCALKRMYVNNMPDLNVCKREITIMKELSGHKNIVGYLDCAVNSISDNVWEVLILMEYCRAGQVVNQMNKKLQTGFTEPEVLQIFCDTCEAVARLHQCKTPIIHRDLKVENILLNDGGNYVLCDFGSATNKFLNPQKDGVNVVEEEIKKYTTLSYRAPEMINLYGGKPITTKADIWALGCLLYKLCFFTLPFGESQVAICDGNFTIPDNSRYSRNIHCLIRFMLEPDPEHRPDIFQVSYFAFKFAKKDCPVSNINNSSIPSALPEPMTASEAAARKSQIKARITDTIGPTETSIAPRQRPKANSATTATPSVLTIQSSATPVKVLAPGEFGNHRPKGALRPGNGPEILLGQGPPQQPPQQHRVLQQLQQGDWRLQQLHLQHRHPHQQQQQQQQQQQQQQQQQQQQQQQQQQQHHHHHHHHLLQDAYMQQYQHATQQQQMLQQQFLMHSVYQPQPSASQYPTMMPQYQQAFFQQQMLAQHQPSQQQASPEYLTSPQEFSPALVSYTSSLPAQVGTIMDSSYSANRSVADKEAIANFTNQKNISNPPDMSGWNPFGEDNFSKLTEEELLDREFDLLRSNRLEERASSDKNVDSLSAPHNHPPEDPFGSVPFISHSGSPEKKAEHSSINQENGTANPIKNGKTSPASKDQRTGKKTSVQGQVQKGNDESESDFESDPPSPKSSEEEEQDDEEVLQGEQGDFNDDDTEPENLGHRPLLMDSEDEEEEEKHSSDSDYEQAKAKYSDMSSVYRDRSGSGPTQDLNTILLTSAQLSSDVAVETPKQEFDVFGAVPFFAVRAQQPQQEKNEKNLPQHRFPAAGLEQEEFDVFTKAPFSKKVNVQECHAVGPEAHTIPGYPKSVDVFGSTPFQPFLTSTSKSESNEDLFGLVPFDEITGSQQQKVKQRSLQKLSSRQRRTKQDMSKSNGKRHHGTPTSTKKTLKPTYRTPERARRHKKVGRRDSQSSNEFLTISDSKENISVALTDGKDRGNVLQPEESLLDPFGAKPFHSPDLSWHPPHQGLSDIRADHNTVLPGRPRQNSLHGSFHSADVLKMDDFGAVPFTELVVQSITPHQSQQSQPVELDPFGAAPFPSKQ
Serine/threonine-protein kinase 16, sequence (O75716 whole entry, the tested form may be a part): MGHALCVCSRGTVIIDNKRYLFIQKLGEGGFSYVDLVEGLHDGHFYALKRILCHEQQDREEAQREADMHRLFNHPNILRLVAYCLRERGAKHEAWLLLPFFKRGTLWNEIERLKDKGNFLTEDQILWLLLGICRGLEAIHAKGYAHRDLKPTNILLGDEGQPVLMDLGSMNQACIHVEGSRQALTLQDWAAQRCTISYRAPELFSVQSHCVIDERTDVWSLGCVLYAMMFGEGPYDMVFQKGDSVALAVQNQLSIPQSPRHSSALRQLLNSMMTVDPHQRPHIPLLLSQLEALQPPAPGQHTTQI
AP2-associated protein kinase 1, sequence (Q2M2I8 whole entry, the tested form may be a part): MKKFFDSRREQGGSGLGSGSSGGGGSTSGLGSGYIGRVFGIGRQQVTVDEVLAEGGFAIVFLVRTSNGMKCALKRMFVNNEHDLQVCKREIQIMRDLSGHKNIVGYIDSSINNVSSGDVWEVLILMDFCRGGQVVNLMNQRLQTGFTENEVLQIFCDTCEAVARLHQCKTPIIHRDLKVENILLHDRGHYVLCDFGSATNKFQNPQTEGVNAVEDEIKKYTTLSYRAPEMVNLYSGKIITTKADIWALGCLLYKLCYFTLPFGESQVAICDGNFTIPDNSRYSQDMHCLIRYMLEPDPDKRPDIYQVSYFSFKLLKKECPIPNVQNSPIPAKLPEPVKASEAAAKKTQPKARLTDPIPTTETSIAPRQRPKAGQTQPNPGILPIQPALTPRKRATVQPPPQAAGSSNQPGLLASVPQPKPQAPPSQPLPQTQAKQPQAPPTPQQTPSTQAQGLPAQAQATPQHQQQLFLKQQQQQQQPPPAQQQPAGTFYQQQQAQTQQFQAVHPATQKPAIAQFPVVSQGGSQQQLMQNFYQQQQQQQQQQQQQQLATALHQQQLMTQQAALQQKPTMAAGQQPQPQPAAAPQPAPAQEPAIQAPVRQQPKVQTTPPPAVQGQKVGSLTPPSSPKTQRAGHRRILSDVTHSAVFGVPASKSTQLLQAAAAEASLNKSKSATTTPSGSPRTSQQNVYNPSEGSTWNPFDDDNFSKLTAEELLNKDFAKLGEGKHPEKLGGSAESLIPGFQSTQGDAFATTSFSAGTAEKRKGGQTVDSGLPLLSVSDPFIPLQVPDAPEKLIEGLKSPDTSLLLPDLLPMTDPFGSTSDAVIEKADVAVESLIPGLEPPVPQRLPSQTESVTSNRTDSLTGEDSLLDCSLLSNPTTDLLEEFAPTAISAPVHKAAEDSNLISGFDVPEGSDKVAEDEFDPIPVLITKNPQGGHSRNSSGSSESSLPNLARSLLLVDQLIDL

What is called Kd is the concentration at which binding is half-saturated. In turn, `COc1cc(-c2cnc3c(N4CCOCC4)snc3c2)cc(OC)c1OC` displayed a dissociation constant Kd in test [1] of 8.9 nM.
By Ki is commonly meant the equilibrium dissociation constant of an inhibitor or competing ligand from its target. Higher therefore signals a looser hold on the target. The IC50 is the concentration needed to halve the response being measured. A word on the ΔTm: it is the change in melting temperature against a reference sample. On to `COc1cc(N(C)c2ccnc3ccc(C(F)(F)F)cc23)cc(OC)c1OC`, for which, in [2], the dissociation constant (Kd) amounted to 740 nM. Besides, the inhibition constant Ki is 95 µM in test [3], 78 µM in [6], 2500 nM in test [8] and 15 µM in [9]. In addition, the 50% inhibitory concentration (IC50) in test [4] and in test [7] was greater than 100000 nM throughout. Further, the ΔTm in test [5] is -0.3 °C.
As for `COc1cc(Nc2ccnc3cc(C#N)ccc23)cc(OC)c1OC`, the Kd in test [10] stood at 66 nM; in [11], 9.7 nM; in test [12], 28 nM; in test [13], 96 nM.
`CC(C)(C)S(=O)(=O)c1ccc2nccc(Nc3n[nH]c4ccc(F)cc34)c2c1` yielded a Ki in test [8] of 220 nM.
As for `COc1cc(Nc2ccnc3ccc(Cl)cc23)cc(OC)c1OC`, the Kd in [10] is 170 nM; in test [11] it was 6.7 nM; in [12], 650 nM; in test [13] it was 85 nM.
For the compound `COc1cc(Nc2ccnc3ccccc23)cc(OC)c1OC`, the dissociation constant Kd was found to be 4100 nM in test [10], 59 nM in test [11], 6200 nM in test [12] and 2900 nM in test [13].
`Clc1cc2cc(c1)-c1cnn3ccc(nc13)NCCOCCO2`: the IC50 in test [14] came out at 60 nM; in [15], 11 nM. Moreover, in test [8], the Ki came out at 3.8 nM.
Regarding `COc1ccc2c(Nc3cc(OC)c(OC)c(OC)c3)ccnc2c1`, the Kd in test [10] worked out at 1200 nM; in test [11], 17 nM; in test [12], 700 nM; in [13], 200 nM.
In the case of `COc1cc(Nc2ccnc3ccc(I)cc23)cc(OC)c1OC`, the dissociation constant (Kd) in test [10] is 190 nM; in [11], 7.9 nM; in test [12], 660 nM; in test [13], 69 nM.
Compound `COc1cc(Nc2ccnc3ccc(Br)cc23)cc(OC)c1OC` yielded a Ki in test [3] greater than 100 µM. Further, the Kd in test [10] worked out at 190 nM; in test [12], 520 nM; in test [13], 110 nM. Further, the half-maximal inhibitory concentration (IC50) was determined as 170 nM in test [4], 650 nM in test [7] and 360 nM in test [15]. Also, the thermal shift (ΔTm) in [5] was 7.7 °C.
Regarding `COc1cc2nccc(Nc3cc(OC)c(OC)c(OC)c3)c2cc1OC`, the Kd in [10] is 250 nM; in [11], 2.9 nM; in [12], 410 nM; in test [13] it was 42 nM.
As to `Cc1[nH]nc(Nc2ncnc3cc(OCCO)c(S(=O)(=O)C(C)(C)C)cc23)c1C`, affinity in [8] was put at a Ki of 49 nM.
As to `COc1cc(Nc2ccnc3ccc(C#N)cc23)cc(OC)c1OC`, the dissociation constant Kd in test [10] amounted to 170 nM; in test [11], 3.9 nM; in [12], 29 nM; in test [13], 88 nM.
For `COc1cc(Nc2ccnc3ccc(C(C)(C)C)cc23)cc(OC)c1OC`, in that order: 740 nM, 25 nM, 350 nM and 670 nM.
In the case of `CC(C)(C)S(=O)(=O)c1cc2c(Nc3ccc4scnc4c3)ncnc2cc1OCCO`, the 50% inhibitory concentration (IC50) in test [14] was greater than 10000 nM; in test [15], 2 nM. The compound also showed an inhibition constant Ki in test [8] of 8200 nM.
As for `COc1cc(Nc2cc(C)nc3ccc(C(F)(F)F)cc23)cc(OC)c1OC`, the Ki is greater than 100 µM in test [3], greater than 100 µM in test [6], 19000 nM in test [8] and greater than 100 µM in test [9]. Further, the shift in melting temperature (ΔTm) in [5] was -0.52 °C.
For `COc1cc(Nc2ccnc3ccc(C(F)(F)F)cc23)cc(OC)c1OC`, the Activity in [16] is greater than 50%. Also, in test [12], the affinity, expressed as Kd, was 790 nM.
For `COc1ccc2nccc(Nc3cc(OC)c(OC)c(OC)c3)c2c1`, the Kd came to 2000 nM in [10], 21 nM in test [11], 2600 nM in test [12] and 170 nM in [13].
